Values after ≈ are worked out from the molar mass of the structure shown. Active and inactive are the calls of the source. No cut-off for these calls is given here.
Columns and labels:
[1] = tested on: Staphylococcus aureus; test: Antibacterial activity against Staphylococcus aureus ATCC 29213 assessed as inhibition of visible growth incubated for 18 hrs by CLSI protocol based microbroth dilution method; type: functional
[2] = tested on: Enterobacter cloacae; test: Antibacterial activity against Enterobacter cloacae 117029 assessed as inhibition of visible growth incubated for 18 hrs by CLSI protocol based microbroth dilution method; type: functional
[3] = tested on: Pseudomonas aeruginosa; test: Antibacterial activity against Pseudomonas aeruginosa ATCC 27853 assessed as inhibition of visible growth incubated for 18 hrs by CLSI protocol based microbroth dilution method; type: functional
[4] = tested on: Klebsiella pneumoniae; test: Antibacterial activity against Klebsiella pneumoniae 116381 assessed as inhibition of visible growth incubated for 18 hrs by CLSI protocol based microbroth dilution method; type: functional
[5] = tested on: Pseudomonas aeruginosa; test: Synergistic antibacterial activity against wild type Pseudomonas aeruginosa PAO1 assessed as fractional inhibitory concentration index in presence of ciprofloxacin by Checkerboard assay; type: functional
[6] = tested on: Pseudomonas aeruginosa; test: Synergistic antibacterial activity against wild type Pseudomonas aeruginosa PAO1 assessed as fractional inhibitory concentration index in presence of moxifloxacin by Checkerboard assay; type: functional
[7] = tested on: Pseudomonas aeruginosa; test: Potentiation of levofloxacin-induced antibacterial activity against wild type Pseudomonas aeruginosa PAO1 assessed as […] measured after 18 hrs by CLSI protocol based microbroth dilution method relative to levofloxacin MIC; type: functional
[8] = tested on: Pseudomonas aeruginosa; test: Additive antibacterial activity against MexAB-OprM efflux pump deficient Pseudomonas aeruginosa PAO200 in presence of ciprofloxacin by Checkerboard assay; type: functional, organism-based
[9] = tested on: Pseudomonas aeruginosa; test: Additive antibacterial activity against MexAB-OprM efflux pump deficient Pseudomonas aeruginosa PAO200 in presence of levofloxacin by Checkerboard assay; type: functional, organism-based
[10] = tested on: Pseudomonas aeruginosa; test: Additive antibacterial activity against MexAB-OprM efflux pump deficient Pseudomonas aeruginosa PAO200 in presence of moxifloxacin by Checkerboard assay; type: functional, organism-based
[11] = tested on: Pseudomonas aeruginosa; test: Additive antibacterial activity against MexAB-OprM, MexCD-OprJ, MexEF-OprN, MexJK and MexXY efflux pumps deficient Pseudomonas aeruginosa PAO750 in presence of levofloxacin by Checkerboard assay; type: functional, organism-based
[12] = tested on: Pseudomonas aeruginosa; test: Additive antibacterial activity against MexAB-OprM, MexCD-OprJ, MexEF-OprN, MexJK and MexXY efflux pumps deficient Pseudomonas aeruginosa PAO750 in presence of moxifloxacin by Checkerboard assay; type: functional, organism-based
[13] = tested on: Pseudomonas aeruginosa; test: Synergistic antibacterial activity against wild type Pseudomonas aeruginosa PAO1 in presence of levofloxacin by Checkerboard assay; type: functional, organism-based
[14] = tested on: Pseudomonas aeruginosa; test: Synergistic antibacterial activity against multidrug resistant Pseudomonas aeruginosa PA259 in presence of levofloxacin by Checkerboard assay; type: functional, organism-based
[15] = tested on: Pseudomonas aeruginosa; test: Synergistic antibacterial activity against multidrug resistant Pseudomonas aeruginosa PA260 in presence of ciprofloxacin by Checkerboard assay; type: functional, organism-based
[16] = tested on: Pseudomonas aeruginosa; test: Synergistic antibacterial activity against multidrug resistant Pseudomonas aeruginosa PA260 in presence of levofloxacin by Checkerboard assay; type: functional, organism-based
[17] = tested on: Pseudomonas aeruginosa; test: Synergistic antibacterial activity against multidrug resistant Pseudomonas aeruginosa PA262 in presence of ciprofloxacin by Checkerboard assay; type: functional, organism-based
[18] = tested on: Pseudomonas aeruginosa; test: Synergistic antibacterial activity against multidrug resistant Pseudomonas aeruginosa PA262 in presence of levofloxacin by Checkerboard assay; type: functional, organism-based
[19] = tested on: Pseudomonas aeruginosa; test: Synergistic antibacterial activity against multidrug resistant Pseudomonas aeruginosa PA264 in presence of ciprofloxacin by Checkerboard assay; type: functional, organism-based
[20] = tested on: Pseudomonas aeruginosa; test: Synergistic antibacterial activity against multidrug resistant Pseudomonas aeruginosa PA264 in presence of levofloxacin by Checkerboard assay; type: functional, organism-based
[21] = tested on: Pseudomonas aeruginosa; test: Synergistic antibacterial activity against multidrug resistant Pseudomonas aeruginosa PA264 in presence of moxifloxacin by Checkerboard assay; type: functional, organism-based
[22] = tested on: Pseudomonas aeruginosa; test: Synergistic antibacterial activity against multidrug resistant Pseudomonas aeruginosa PA100036 in presence of ciprofloxacin by Checkerboard assay; type: functional, organism-based
[23] = tested on: Pseudomonas aeruginosa; test: Synergistic antibacterial activity against multidrug resistant Pseudomonas aeruginosa PA100036 in presence of moxifloxacin by Checkerboard assay; type: functional, organism-based
[24] = tested on: Pseudomonas aeruginosa; test: Synergistic antibacterial activity against multidrug resistant Pseudomonas aeruginosa PA101885 in presence of levofloxacin by Checkerboard assay; type: functional, organism-based
[25] = tested on: Pseudomonas aeruginosa; test: Synergistic antibacterial activity against multidrug resistant Pseudomonas aeruginosa PA101885 in presence of moxifloxacin by Checkerboard assay; type: functional, organism-based
[26] = tested on: Escherichia coli; test: Additive antibacterial activity against Escherichia coli ATCC 25922 in presence of ciprofloxacin by Checkerboard assay; type: functional, organism-based
[27] = tested on: Escherichia coli; test: Additive antibacterial activity against Escherichia coli 107115 in presence of ciprofloxacin by Checkerboard assay; type: functional, organism-based
[28] = tested on: Escherichia coli; test: Synergistic antibacterial activity against Escherichia coli 107115 in presence of levofloxacin by Checkerboard assay; type: functional, organism-based
[29] = tested on: Escherichia coli; test: Synergistic antibacterial activity against Escherichia coli 94393 in presence of levofloxacin by Checkerboard assay; type: functional, organism-based
[30] = tested on: Escherichia coli; test: Synergistic antibacterial activity against Escherichia coli ATCC 25922 in presence of moxifloxacin by Checkerboard assay; type: functional, organism-based
[31] = tested on: Escherichia coli; test: Synergistic antibacterial activity against Escherichia coli 107115 in presence of moxifloxacin by Checkerboard assay; type: functional, organism-based
[32] = tested on: Escherichia coli; test: Synergistic antibacterial activity against Escherichia coli 94393 in presence of moxifloxacin by Checkerboard assay; type: functional, organism-based
[33] = tested on: Klebsiella pneumoniae; test: Synergistic antibacterial activity against Klebsiella pneumoniae 116381 in presence of ciprofloxacin by Checkerboard assay; type: functional, organism-based
[34] = tested on: Klebsiella pneumoniae; test: Synergistic antibacterial activity against Klebsiella pneumoniae 116381 in presence of levofloxacin by Checkerboard assay; type: functional, organism-based
[35] = tested on: Acinetobacter baumannii; test: Synergistic antibacterial activity against Acinetobacter baumannii ATCC 17978 in presence of ciprofloxacin by Checkerboard assay; type: functional, organism-based
[36] = tested on: Acinetobacter baumannii; test: Synergistic antibacterial activity against Acinetobacter baumannii ATCC 17978 in presence of levofloxacin by Checkerboard assay; type: functional, organism-based
[37] = tested on: Acinetobacter baumannii; test: Synergistic antibacterial activity against Acinetobacter baumannii ATCC 17978 in presence of moxifloxacin by Checkerboard assay; type: functional, organism-based
[38] = tested on: Acinetobacter baumannii; test: Synergistic antibacterial activity against multidrug resistant Acinetobacter baumannii AB027 assessed as fractional inhibitory concentration index in presence of ciprofloxacin by Checkerboard assay; type: functional
[39] = tested on: Acinetobacter baumannii; test: Synergistic antibacterial activity against multidrug resistant Acinetobacter baumannii AB027 assessed as fractional inhibitory concentration index in presence of moxifloxacin by Checkerboard assay; type: functional
[40] = Hemolytic activity in pig erythrocyte at 512 ug/ml incubated for 1 hr by microplate reader assay relative to control; type: ADME, cell-based, Sus scrofa; settings: pig erythrocytes, at 512 µg/mL, read-out: Activity
[41] = tested on: Pseudomonas aeruginosa; test: Potentiation of chloramphenicol-induced antibacterial activity against wild type Pseudomonas aeruginosa PAO1 measured after 18 hrs by CLSI protocol based microbroth dilution method; type: functional, organism-based
[42] = tested on: Pseudomonas aeruginosa; test: Potentiation of linezolid-induced antibacterial activity against wild type Pseudomonas aeruginosa PAO1 measured after 18 hrs by CLSI protocol based microbroth dilution method; type: functional, organism-based
[43] = tested on: Pseudomonas aeruginosa; test: Potentiation of clindamycin-induced antibacterial activity against wild type Pseudomonas aeruginosa PAO1 measured after 18 hrs by CLSI protocol based microbroth dilution method; type: functional, organism-based
[44] = tested on: Pseudomonas aeruginosa; test: Potentiation of pleuromutilin-induced antibacterial activity against wild type Pseudomonas aeruginosa PAO1 measured after 18 hrs by CLSI protocol based microbroth dilution method; type: functional, organism-based
[45] = tested on: Pseudomonas aeruginosa; test: Potentiation of fosfomycin-induced antibacterial activity against wild type Pseudomonas aeruginosa PAO1 measured after 18 hrs by CLSI protocol based microbroth dilution method; type: functional, organism-based
[46] = tested on: Pseudomonas aeruginosa; test: Potentiation of novobiocin-induced antibacterial activity against wild type Pseudomonas aeruginosa PAO1 measured after 18 hrs by CLSI protocol based microbroth dilution method; type: functional, organism-based

## C[C@H]1COc2c(N3CCN(C)CC3)c(F)cc3c(=O)c(C(=O)NCCCCCCCCCCCC(=O)N[C@@H](CCN)C(=O)N[C@@H](CCN)C(N)=O)cn1c23
[1]
  MIC: 128 µg/mL (≈ 169 µM)
[2]
  MIC: 128 µg/mL (≈ 169 µM)
[3]
  MIC: > 128 µg/mL
[4]
  MIC: > 128 µg/mL
[5]
  fractional inhibitory concentration index (FICI): 0.313
[6]
  fractional inhibitory concentration index (FICI): 0.5
[7]
  Ratio: 4
[8]
  Activity: Active
[9]
  Activity: Active
[10]
  Activity: Active
[11]
  Activity: Active
[12]
  Activity: Active
[13]
  Activity: Active
[14]
  Activity: Active
[15]
  Activity: Active
[16]
  Activity: Active
[17]
  Activity: Active
[18]
  Activity: Active
[19]
  Activity: Active
[20]
  Activity: Active
[21]
  Activity: Active
[22]
  Activity: Active
[23]
  Activity: Active
[24]
  Activity: Active
[25]
  Activity: Active
[26]
  Activity: Active
[27]
  Activity: Active
[28]
  Activity: Active
[29]
  Activity: Active
[30]
  Activity: Active
[31]
  Activity: Active
[32]
  Activity: Active
[33]
  Activity: Active
[34]
  Activity: Active
[35]
  Activity: inactive
[36]
  Activity: inactive
[37]
  Activity: inactive
[38]
  fractional inhibitory concentration index (FICI): 0.37
[39]
  fractional inhibitory concentration index (FICI): 0.37
[40]
  hemolysis at 1 h, 512 ug/ml: < 1%
[41]
  Activity: Active
[42]
  Activity: Active
[43]
  Activity: Active
[44]
  Activity: Active
[45]
  Activity: Active
[46]
  Activity: Active
